Test results published in ChEMBL document CHEMBL1143702, “Synthesis and biological evaluation of (+/-)-abyssinone II and its analogues as aromatase inhibitors for chemoprevention of breast cancer” (J Med Chem, 2007).

Biological target: T1, Aromatase (Homo sapiens, UniProt P11511)
T1 sequence (P11511 whole entry): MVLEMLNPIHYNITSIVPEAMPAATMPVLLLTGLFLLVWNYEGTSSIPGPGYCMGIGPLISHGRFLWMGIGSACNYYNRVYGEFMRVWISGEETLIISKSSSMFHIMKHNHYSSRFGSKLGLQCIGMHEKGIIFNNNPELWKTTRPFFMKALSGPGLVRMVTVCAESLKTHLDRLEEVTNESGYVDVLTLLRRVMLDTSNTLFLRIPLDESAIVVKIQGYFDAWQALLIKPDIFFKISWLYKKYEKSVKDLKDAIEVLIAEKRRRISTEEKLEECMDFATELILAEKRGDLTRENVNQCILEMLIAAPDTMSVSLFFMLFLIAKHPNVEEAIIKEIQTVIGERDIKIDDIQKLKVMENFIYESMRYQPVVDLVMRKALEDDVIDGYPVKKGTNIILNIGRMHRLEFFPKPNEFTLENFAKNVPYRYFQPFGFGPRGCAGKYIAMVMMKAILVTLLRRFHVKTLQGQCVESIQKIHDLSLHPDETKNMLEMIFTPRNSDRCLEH
Description: Inhibition of human aromatase

SMILES	IC50 [µM]
COCOc1ccc(C(=O)/C=C/c2ccc(OCOC)c(CC=C(C)C)c2)c(O)c1	> 242
COc1ccc(C(=O)/C=C/c2ccc(OCC=C(C)C)cc2)c(O)c1	> 271
